1 compound from patent publication US20240139347A1, “COMPLEX, VASCULAR CONTRAST AGENT, X-RAY CONTRAST AGENT, METHOD FOR PRODUCING COMPLEX, AND IMAGING METHOD FOR CAPTURING STRUCTURAL CHANGE IN VESSEL” (TOHOKU UNIVERSITY, priority 2021, published 2024) can be followed below.

The data set is described as follows: in vivo. Conditions: BALB/c, mouse, iv. From the text: The complex disclosed in the present application is preferably retained in the blood until completion of X-ray CT imaging after administration and is preferably excreted by the kidneys by the time of the next X-ray CT imaging. […] As a matter of course, the half-life in blood may be shorter or longer than the above half-life in blood in the case of imaging a temporary structure instead of imaging structural change over time or using a typical X-ray CT imaging device. The half-life in blood can be adjusted by changing the type of protein or the size of the complex. The “half-life in blood” means the time it takes for the X-ray CT value of the complex to decrease by half from the maximum value after administration in vivo. However, the shortest time at which X-ray CT imaging can be started after administration of a contrast agent is about 5 minutes, and thus the measurement value at the time when X-ray CT imaging is started 5 minutes after administration of the contrast agent is defined as the “maximum value after administration in vivo” in the present specification.
Imaging was performed using a micro X-ray CT device (SkyScan1176, Bruker) under conditions of a tube voltage of 50 kV, a tube current of 500 μA, and 35 μm/voxel, 18 μm/voxel, or 9 μm/voxel. The contrast agents synthesized in Example 1 and Comparative Examples 1 and 2 were imaged in vitro. In vivo, 200 μL of each contrast agent was injected into an anesthetized mouse from the tail vein, and CT imaging was performed once or twice. Slice images were acquired using CTAn (Bruker), and volume rendered images were acquired using CTVOX. CT values were calculated by defining the value of Hounsfield Units (HU) as −1000 for air and 0 for water.
The image before the administration of the contrast agent was taken as 0 min (before injection).
FIGS. 16 and 17 show CT images of mouse hearts before and after intravenous administrations of the contrast agents. […] In addition, in FIGS. 16 and 17, the dotted line circles indicate the contour of the hearts, and the tips of the arrows (white and black) indicate the positions of the septa of the hearts.
FIG. 18 is a graph showing results of measuring changes in CT values of ventricles over time.

In the case of `C[C@H](O)C(=O)Nc1c(I)c(C(=O)NC(CO)CO)c(I)c(C(=O)NC(CO)CO)c1I` [iopamidol, Iopamidol], the “CT value of ventricles” value was found to be 72 HU and the half-life is less than 60 min. Moreover, the “CT value of ventricles” value (5 min) came out at 291 HU. For the same compound, the “CT value of ventricles” value (60 min) was 130 HU. Besides, the “CT value of ventricles” value (180 min) stood at 75 HU. In addition, the “CT value of ventricles” value (360 min) came out at 87 HU. For the same compound, the “CT value of ventricles” value (24 h) was 72 HU.

In general, half-life refers to how long it takes for the measured level to halve.
